Experimental data: patent US11530218B2, “Spiro compounds as inhibitors of KRAS” (Incyte Corporation, priority 2020, dated 2022)
pIC50: −log10 of the molar value.

Each compound was assayed on KRAS G12C (MIA PaCa-2 cells) (assay: KRAS_G12C cellular pERK HTRF assay). Details: Homo sapiens, MIA PaCa-2; cells incubated with compound 4 hours; read-out: G12C_pERK (KRAS_G12C pERK assay IC50).
Format: cell-based, human
Parameters: G12C_pERK (KRAS_G12C pERK assay IC50): scale not given here
Procedure: MIA PaCa-2 (KRAS G12C; ATCC® CRL-1420), A427 (KRAS G12D; ATCC® HTB53), HPAF-II (KRAS G12D; ATCC® CRL-1997) and NCI-H838 (KRAS WT; ATCC® CRL-5844) cells are purchased from ATCC and maintained in RPMI 1640 media supplemented with 10% FBS (Gibco/Life Technologies). The cells are plated at 5000 cells per well (8 uL) into Greiner 384-well low volume, flat-bottom, tissue culture treated white plates and incubated overnight at 37° C., 5% CO2. The next morning, test compound stock solutions are diluted in media at 3x the final concentration, and 4 uL are added to the cells. The plate is mixed by gentle rotation for 30 seconds (250 rpm) at room temperature. The cells are incubated with the KRAS G12C and G12D compounds for 4 hours or 2 hours respectively at 37° C., 5% CO2.
4 uL of 4× lysis buffer with blocking reagent (1:25) (Cisbio) are added to each well and plates are rotated gently (300 rpm) for 30 minutes at room temperature. 4 uL per well of Cisbio anti Phospho-ERK 1/2 d2 is mixed with anti Phospho-ERK 1/2 Cryptate (1:1) are added to each well, mixed by rotation and incubated overnight in the dark at room temperature. Plates are read on the Pherastar plate reader at 665 nm and 620 nm wavelengths. IC50 determination is performed by fitting the curve of inhibitor percent inhibition versus the log of the inhibitor concentration using the GraphPad Prism 7 software.

Row | pIC50 | SMILES
1 | 5.30 to 6.00 | C=CC(=O)N1CCC2(CC1)Nc1c(cnc3c(F)c(-c4c(O)cccc4F)c(Cl)cc13)NC2=O [Example 1, 1-Acryloyl-9′-chloro-7′-fluoro-8′-(2-fluoro-6-hydroxyphenyl)-1′,4′-dihydro-3′H-spiro[piperidine-4,2′-pyrazino[2,3-c]quinolin]-3′-one]

Same assay, conditions: cells incubated with compound 4 hours

Row | G12C_pERK (KRAS_G12C pERK assay IC50) | SMILES
2 | †† | C=CC(=O)N1CCC2(CC1)C(=O)N(C)c1c(OC[C@@H]3CCCN3C)nc3c(F)c(-c4cc(O)cc5ccccc45)c(Cl)cc3c12 (single isomer, unassigned) [Example 16a]

What follows are compounds tested against KRAS G12D (Homo sapiens, UniProt P01116, G12D) (assay: KRAS G12D GDP-GTP exchange assay (bodipy-GDP/GppNHp, SOS1)). Details: bodipy loaded KRAS G12D 2.5 nM, 4 hours incubation after GppNHp-SOS1; read-out: G12D_exchange (KRAS_G12D exchange assay IC50).
Format: biochemical
Procedure: The inhibitor potency of the exemplified compounds was determined in a fluorescence based guanine nucleotide exchange assay, which measures the exchange of bodipy-GDP (fluorescently labeled GDP) for GppNHp (Non-hydrolyzable GTP analog) to generate the active state of KRAS in the presence of SOS1 (guanine nucleotide exchange factor). Inhibitors were serially diluted in DMSO and a volume of 0.1 μL was transferred to the wells of a black low volume 384-well plate. 5 μL/well volume of bodipy-loaded KRAS G12C diluted to 5 nM in assay buffer (25 mM Hepes pH 7.5, 50 mM NaCl, 10 mM MgCl2 and 0.01% Brij-35) was added to the plate and pre-incubated with inhibitor for 2 hours at ambient temperature. Appropriate controls (enzyme with no inhibitor or with a G12C inhibitor (AMG-510)) were included on the plate. The exchange was initiated by the addition of a 5 μL/well volume containing 1 mM GppNHp and 300 nM SOS1 in assay buffer. The 10 μL/well reaction concentration of the bodipy-loaded KRAS G12C, GppNHp, and SOS1 were 2.5 nM, 500 uM, and 150 nM, respectively. The reaction plates were incubated at ambient temperature for 2 hours, a time estimated for complete GDP-GTP exchange in the absence of inhibitor. For the KRAS G12D and G12V mutants, similar guanine nucleotide exchange assays were used with 2.5 nM as final concentration for the bodipy loaded KRAS proteins and with 4 hours and 3 hours incubation after adding GppNHp-SOS1 mixture for G12D and G12V respectively. A cyclic peptide described to selectively bind G12D mutant (Sakamoto et al., BBRC 484.3 (2017), 605-611) or internal compounds with confirmed binding were used as positive controls in the assay plates. Fluorescence intensities were measured on a PheraStar plate reader instrument (BMG Labtech) with excitation at 485 nm and emission at 520 nm.
Either GraphPad prism or XLfit was used to analyze the data. The IC50 values were derived by fitting the data to a four parameter logistic equation producing a sigmoidal dose-response curve with a variable Hill coefficient. Prism equation: Y=Bottom+(Top−Bottom)/(1+10^((Log IC50−X)*Hill slope)); XLfit equation: Y=(A+((B−A)/(1+((X/C)^D)))) where X is the logarithm of inhibitor concentration and Y is the response.

KRAS G12D, sequence (P01116 1-188 isoform P01116-2 G12D): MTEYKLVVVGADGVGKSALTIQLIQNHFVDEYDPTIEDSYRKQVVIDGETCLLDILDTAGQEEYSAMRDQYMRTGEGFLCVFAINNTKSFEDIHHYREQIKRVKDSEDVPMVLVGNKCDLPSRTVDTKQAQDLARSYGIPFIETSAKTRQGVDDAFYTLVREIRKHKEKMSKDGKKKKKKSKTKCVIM

Row | SMILES | pIC50
3 | CN(C)C1CN(c2nc3c(F)c(-c4cc(O)cc5ccccc45)c(CCCC#N)cc3c3c2NCC32CCCNC2)C1 (single isomer, unassigned) [Example 28b, 4-(4′-(3-(dimethylamino)azetidin-1-yl)-6′-fluoro-7′-(3-hydroxynaphthalen-1-yl)-2′,3′-dihydrospiro[piperidine-3,1′-pyrrolo[2,3-c]quinolin]-8′-yl)butanenitrile] | 5.30 to 6.00
4 | CN(C)C1CN(c2nc3c(F)c(-c4cc(O)cc5ccccc45)c(CCCC#N)cc3c3c2NC(=O)C32CCNC2)C1 (single isomer, unassigned) [Example 30b, 4-(4′-(3-(dimethylamino)azetidin-1-yl)-6′-fluoro-7′-(3-hydroxynaphthalen-1-yl)-2′-oxo-2′,3′-dihydrospiro[pyrrolidine-3,1′-pyrrolo[2,3-c]quinolin]-8′-yl)butanenitrile] | 5.30 to 6.00
5 | CN(C)C1CN(c2nc3c(F)c(-c4cc(O)cc5ccccc45)c(CCCC#N)cc3c3c2NC(=O)C32CNCCO2)C1 (single isomer, unassigned) [Example 31b, 4-(4′-(3-(dimethylamino)azetidin-1-yl)-6′-fluoro-7′-(3-hydroxynaphthalen-1-yl)-2′-oxo-2′,3′-dihydrospiro[morpholine-2,1′-pyrrolo[2,3-c]quinolin]-8′-yl)butanenitrile] | 4.30 to 5.30
6 | CN1CCC[C@H]1COc1nc2c(F)c(-c3cc(O)cc4ccccc34)c(CCCC#N)cc2c2c1NC(=O)C21CCCNC1 (single isomer, unassigned) [Example 32b] | 5.30 to 6.00
7 | CN1C(=O)C2(CCCNC2)c2c1c(OC[C@@H]1CCCN1C)nc1c(F)c(-c3cc(O)cc4ccccc34)c(CCCC#N)cc21 (single isomer, unassigned) [Example 33b] | 5.30 to 6.00
8 | CN1CCC[C@H]1COc1nc2c(F)c(-c3cc(O)cc4ccccc34)c(CCCC#N)cc2c2c1N(CCO)C(=O)C21CCCNC1 (single isomer, unassigned) [Example 34b] | 5.30 to 6.00
9 | CN1CCC[C@H]1COc1nc2c(F)c(-c3cc(O)cc4ccccc34)c(CCCC#N)cc2c2c1N(CC#N)C(=O)C21CCCNC1 (single isomer, unassigned) [Example 36a] | 5.30 to 6.00
10 | CN1CCC[C@H]1COc1nc2c(F)c(-c3cc(O)cc4ccccc34)c(CCCC#N)cc2c2c1N(CC(N)=O)C(=O)C21CCCNC1 (single isomer, unassigned) [Example 37b] | 5.30 to 6.00
11 | CN(C)C1CN(c2nc3c(F)c(-c4cc(O)cc5ccccc45)c(Cl)cc3c3c2NC(=O)C32CC(N)C2)C1 (centres unmarked) [Example 22, 3-amino-8′-chloro-4′-(3-(dimethylamino)azetidin-1-yl)-6′-fluoro-7′-(3-hydroxynaphthalen-1-yl)spiro[cyclobutane-1,1′-pyrrolo[2,3-c]quinolin]-2′(3′H)-one] | 4.30 to 5.30
12 | CN(C)C1CN(c2nc3c(F)c(-c4cc(O)cc5ccccc45)c(CCC#N)cc3c3c2NC(=O)C32CNC2)C1 [Example 29, 3-(4′-(3-(dimethylamino)azetidin-1-yl)-6′-fluoro-7′-(3-hydroxynaphthalen-1-yl)-2′-oxo-2′,3′-dihydrospiro[azetidine-3,1′-pyrrolo[2,3-c]quinolin]-8′-yl)propanenitrile] | 5.30 to 6.00

Results, then the compound that gave them:

Row | pIC50 | SMILES
13 | 5.30 to 6.00 | Cc1cc2c3c(c(N4CC(N(C)C)C4)nc2c(F)c1-c1cc(O)cc2ccccc12)NC(=O)C31CCCNC1 (single isomer, unassigned) [Example 19b, 4′-(3-(dimethylamino)azetidin-1-yl)-6′-fluoro-7′-(3-hydroxynaphthalen-1-yl)-8′-methylspiro[piperidine-3,1′-pyrrolo[2,3-c]quinolin]-2′(3′H)-one]
14 | 5.30 to 6.00 | CN(C)C1CN(c2nc3c(F)c(-c4cc(O)cc5ccc(Cl)cc45)c(Cl)cc3c3c2NC(=O)C32CCCNC2)C1 (single isomer, unassigned) [Example 20b, 8′-chloro-7′-(7-chloro-3-hydroxynaphthalen-1-yl)-4′-(3-(dimethylamino)azetidin-1-yl)-6′-fluorospiro[piperidine-3,1′-pyrrolo[2,3-c]quinolin]-2′(3′H)-one]
15 | 5.30 to 6.00 | CN(C)C1CN(c2nc3c(F)c(-c4cc(O)cc5ccccc45)c(Cl)cc3c3c2NC(=O)C32CC3CC2CN3)C1 (single isomer, unassigned) [Example 21b, 8′-chloro-4′-(3-(dimethylamino)azetidin-1-yl)-6′-fluoro-7′-(3-hydroxynaphthalen-1-yl)-5-azaspiro[bicyclo[2.2.1]heptane-2,1′-pyrrolo[2,3-c]quinolin]-2′(3′H)-one]
16 | 6.00 to 7.00 | CN(C)C1CN(c2nc3c(F)c(-c4cc(O)cc5ccccc45)c(CCCC#N)cc3c3c2NC(=O)C32CCCNC2)C1 (single isomer, unassigned) [Example 23b, 4-(4′-(3-(dimethylamino)azetidin-1-yl)-6′-fluoro-7′-(3-hydroxynaphthalen-1-yl)-2′-oxo-2′,3′-dihydrospiro[piperidine-3,1′-pyrrolo[2,3-c]quinolin]-8′-yl)butanenitrile]
17 | 5.30 to 6.00 | CN(C)C1CN(c2nc3c(F)c(-c4cc(O)cc5ccccc45)c(CC#N)cc3c3c2NC(=O)C32CCCNC2)C1 (single isomer, unassigned) [Example 24a, 2-(4′-(3-(dimethylamino)azetidin-1-yl)-6′-fluoro-7′-(3-hydroxynaphthalen-1-yl)-2′-oxo-2′,3′-dihydrospiro[piperidine-3,1′-pyrrolo[2,3-c]quinolin]-8′-yl)acetonitrile]
18 | 5.30 to 6.00 | CN(C)C1CN(c2nc3c(F)c(-c4cc(O)cc5ccccc45)c(CCC#N)cc3c3c2NC(=O)C32CCCNC2)C1 (single isomer, unassigned) [Example 25b, 3-(4′-(3-(dimethylamino)azetidin-1-yl)-6′-fluoro-7′-(3-hydroxynaphthalen-1-yl)-2′-oxo-2′,3′-dihydrospiro[piperidine-3,1′-pyrrolo[2,3-c]quinolin]-8′-yl)propanenitrile]
19 | 5.30 to 6.00 | CN(C)C1CN(c2nc3c(F)c(-c4cc(O)cc5ccccc45)c(Cc4ccccc4Cl)cc3c3c2NC(=O)C32CCCNC2)C1 (single isomer, unassigned) [Example 26b, 8′-(2-chlorobenzyl)-4′-(3-(dimethylamino)azetidin-1-yl)-6′-fluoro-7′-(3-hydroxynaphthalen-1-yl)spiro[piperidine-3,1′-pyrrolo[2,3-c]quinolin]-2′(3′H)-one]
20 | 5.30 to 6.00 | CN(C)C1CN(c2nc3c(F)c(-c4cc(O)cc5ccccc45)c(Cc4ccccc4C#N)cc3c3c2NC(=O)C32CCCNC2)C1 (single isomer, unassigned) [Example 27b, 2-((4′-(3-(dimethylamino)azetidin-1-yl)-6′-fluoro-7′-(3-hydroxynaphthalen-1-yl)-2′-oxo-2′,3′-dihydrospiro[piperidine-3,1′-pyrrolo[2,3-c]quinolin]-8′-yl)methyl)benzonitrile]
